Source: BindingDB's records for doi:10.1016/j.ejmech.2019.01.082 (Fudan University, 2019)

Assay: Inverse agonist activity at RORgammat in mouse CD4 positive T cells assessed as inhibition of Th17 cell differentiation by measuring IL-17 release after 4 days by cellular staining based flow cytometry

Row | IC50 [nM] | Compound
1 | 423 | N#Cc1cccc(C(=O)Nc2ccc3c(c2)C(N2CC4CCC(C2)N4C(=O)C2CCCC2)CC3)c1 (centres undefined)
2 | 1780 | N#Cc1cccc(C(=O)Nc2cccc3c2CCC3N2CCN(C(=O)C3CCCC3)CC2)c1 (centres undefined)
3 | 385 | N#Cc1cccc(C(=O)Nc2cccc3c2CCC3N2CC3CCC(C2)N3C(=O)C2CCCC2)c1 (centres undefined)
4 | 2660 | N#Cc1cccc(C(=O)Nc2ccc3c(c2)C(N2CCN(C(=O)C4CCCC4)CC2)CC3)c1 (centres undefined)
